From patent US20040102454A1, “Phenylahistin and the phenylahistin analogs, a new class of anti-tumor compounds” (priority 1998, published 2004)
Where two headings read alike, the source gives them in different places.

What was measured:
38 tumor cell lines = assay: Human Cancer Cell Line Panel (HCC panel) assay, whole panel; format: cell-based; conditions: (−)-PLH content 24.1%, read-out: GI50 values, range over 38 cell lines
Method: The antitumor activity of PLH was evaluated by the Human Cancer Cell Line Panel (HCC panel) assay, see Yamori T., Jap. J Cancer Chemother., (1997), 24, 129-35. This HCC panel consists of 38 tumor cell lines including 7 lung cancer, 6 stomach, 6 colon, 5 ovary, 6 central nerve system, 5 breast, 2 kidney and 1 melanoma cell lines. Each tumor cell was seeded in 96-well tissue culture plates and incubated overnight. Various concentrations (5 doses; final 10^−4, 10^−5, 10^−6, 10^−7 and 10^−8 M) of PLH were added, and the cells were incubated for 48 hours. […] All mice were obtained from Japan SLC (Shizuoka, Japan), P388 leukemia cells were obtained from Dainippon Pharmaceuticals Inc. (Osaka, Japan), Lewis Lung Carcinoma from Riken Cell Bank (Tsukuba, Japan), and Colon 26 cells from the National Cancer Center, Japan (Tokyo, Japan).

P388 leukemia cells = assay: In vivo antitumor activity against P388 leukemia; parameters: species or system mice
Method: Male CDF1 mice (4 weeks old) were inoculated intraperitoneally with P388 leukemia cells (1×10^6 cells/body) on day 0. […] Each group consisted of six mice. A T/C (%) was calculated according to the following formula:
T/C (%)=[(mean number of survival days of treated group)/(mean number of survival days of control group)]×100

A549 cells = assay: Mitotic index; format: cell-based, human
Method: Exponentially growing A549 cells were seeded into 96-well tissue culture plates (2×10^3 cells/100:1/well) and cultured for 16 hours. (−)-PLH or CLC was then added to each well at various concentrations, and the plates were incubated for an additional 24 hours. The number of cells in mitosis (round cells) and total cells in eight randomly selected fields were counted under a phase-contrast microscope. In a series of preliminary studies, it was confirmed that the round cells in this condition were cells in mitosis by using flow cytometry and Hoechst 33258 staining. The mitotic index represented the percentage of round cells among the total number of cells in the eight selected fields.

C. albicans 10231 = assay: Antifungal susceptibility testing, broth dilution (NCCLS M38-A); format: cell-based, Candida albicans; conditions: Candida albicans; C. albicans 10231; 80% reduction in turbidity; read-out: MIC
Method: (§1) Antifungal susceptibility testing was accomplished according to the methods outlined in the National Committee for Clinical Laboratory Standards, M38-A “Reference Method for Broth Dilution Antifungal Susceptibility Testing of Conidium-Forming Filamentous Fungi; Approved Standard.” This includes testing in RPMI-1640 with glutamine and without bicarbonate, an inoculum size of 0.4-5×10^4, and incubation at 30 or 35° C. for 48 hours. […] Drug concentrations were 0.03-16 μg/ml for the investigational compounds, 0.015-8 μg/ml for itraconazole and griseofulvin.
(§2) The minimum lethal concentration (MLC) was determined by plating […] from the MIC concentration and each concentration above the MIC. […] When a MIC was obtained, a minimum fungicidal concentration (MFC) was determined to assess the fungistatic/fungicidal nature of the compound. […] The compound is scored as fungistatic if the cells are able to resume growth and fungicidal if no regrowth is possible because the compound had killed the organisms.

C. albicans 90028 = assay: as above; format: cell-based, Candida albicans; conditions: Candida albicans; C. albicans 90028; 80% reduction in turbidity; read-out: MIC
Method: as §1, §2

P388 cells [1] = assay: Cell cycle progression of P388, flow cytometer; format: cell-based, murine; conditions: 1×10^−6 M, 8-hour incubation
Method: The effect of phenylahistin on the cell cycle progression of P388 cells was also investigated using a flow cytometer, as described in Krishan, A., J. Cell Biol. (1975) 66, 188-193. P388 cells in the log growth phase were seeded into flasks and cultured for 14 hours, and then various concentrations of phenylahistin were added to each flask. After an 8-hour incubation, the cells were harvested and fixed with 50% MeOH at −20° C. overnight. The cells were washed with 30% MeOH and then with 10 mM PBS, and treated with 50 :g/ml propidium iodide at 4° C. for 2 hours. DNA histograms were obtained using a flow cytometer (Cyto ACE-300:JASCO).

C. glabrata = assay: Antifungal susceptibility testing, broth dilution (NCCLS M38-A); format: cell-based, Candida glabrata; conditions: Nakaseomyces glabratus; C. glabrata; 80% reduction in turbidity; read-out: MIC
Method: as §1, §2

P388 cells [2] = assay: P388 proliferation, Alamar Blue assay; format: cell-based, murine; conditions: for IC50: Mus musculus
[3] = 4.2 mg/kg (1 mg/kg calculated (−)-PLH) i.p. daily days 1 to 12
[4] = 12.5 mg/kg (3 mg/kg calculated (−)-PLH) i.p. daily days 1 to 12
[5] = 42 mg/kg (10 mg/kg calculated (−)-PLH) i.p. daily days 1 to 12
[6] = 125 mg/kg (30 mg/kg calculated (−)-PLH) i.p. daily days 1 to 12

With `C=CC(C)(C)c1[nH]cnc1/C=C1\NC(=O)[C@H](Cc2ccccc2)NC1=O` (racemic) [PLH, phenylahistin] the GI50 (38 tumor cell lines) was 230 to 40000 nM, the “Mean Body weight on day 12” value (P388 leukemia cells; [3]) was 25.3 ± 0.4 g and the “Mean Number of Survival days” value (P388 leukemia cells; [3]) was 14.6 ± 0.6 days. The “T/C (%)” value (P388 leukemia cells; [3]) was 117%, the “Mean Body weight on day 12” value (P388 leukemia cells; [4]) was 24.1 ± 0.6 g and the “Mean Number of Survival days” value (P388 leukemia cells; [4]) was 14.6 ± 0.5 days. For the same compound, the “T/C (%)” value (P388 leukemia cells; [4]) was 117%, the “Mean Body weight on day 12” value (P388 leukemia cells; [5]) was 23.0 ± 0.5 g and the “Mean Number of Survival days” value (P388 leukemia cells; [5]) was 16.1 ± 0.8 days. The “T/C (%)” value (P388 leukemia cells; [5]) was 129%, the “Mean Body weight on day 12” value (P388 leukemia cells; [6]) was 22.3 ± 0.3 g and the “Mean Number of Survival days” value (P388 leukemia cells; [6]) was 18.9 ± 0.9 days. The “T/C (%)” value (P388 leukemia cells; [6]) was 151%, the “increases in body weight seen in the control group” value (P388 leukemia cells; daily administrations of PLH 41.5 and 124 mg/kg) was “suppressed” and the T/C (P388 leukemia cells; daily dosage of 41.5 mg/kg for 12 days) was 129%. The T/C (P388 leukemia cells; daily dosage of 124 (30) mg/kg for 12 days) was 151%, the tremorgenic side effects (P388 leukemia cells; highest dose (124 mg/kg/day)) was “did not induce such side effects” and the T/C (P388 leukemia cells; single administration, 415 mg/kg PLH [(−)-PLH 100 mg/kg]) was 115%.
`C=CC(C)(C)c1[nH]cnc1/C=C1\NC(=O)[C@H](Cc2ccccc2)NC1=O` [(−)-phenylahistin] was tested, and the mitotic index (A549 cells; 24 hours) was “increased”, the “reversibility of the anti-mitotic effect” value (A549 cells; after washing and replacement with fresh medium) was “reversible” and the MIC (C. albicans 10231) was over 70 µg/mL. For the same compound, the MIC (C. albicans 90028) was over 70 µg/mL, the “cell cycle inhibitory activity (G2/M)” value (P388 cells [1]) was “exhibited cell cycle inhibitory activity” and the “cell cycle inhibitory activity (G2/M)” value (P388 cells [1]; listed as (−)-PLH) was “completely inhibits the cell cycle progression”. The MIC (C. glabrata) was over 70 µg/mL, the “times more active than (+)-phenylahistin in anti-proliferative assays” value (P388 cells [2]) was 50 times and the IC50 (P388 cells [2]; P388, read-out: IC50 P388 proliferation) was 210 nM. For the same compound, the IC50 (P388 cells [2]; P388, read-out: IC50 for P388 Proliferation) was 210 nM and the “times less active than colchicine, anti-proliferative activity” value (P388 cells [2]; P388) was “about 10 times”.
